In ChEMBL document CHEMBL1821650, “Pharmacodynamic synergy strictly dependent on the co-operative aggregation of enantiomers of cyclic peptides in the bacterial cell membrane” (Bioorg Med Chem Lett, 2011):
Calls of active or inactive are those of the source. The calls are words filed in the database; no cut-off is given here.

Tests used:
Priestia megaterium [1] = experiment: Antimicrobial activity against Bacillus megaterium at > 50 uM by broth microdilution method; assay type: functional, organism-based
Priestia megaterium [2] = experiment: Antimicrobial activity against Bacillus megaterium at 1 mM after 24 hrs by agar diffusion method; assay type: functional, organism-based
[3] = Toxicity in sheep erythrocytes assessed as hemolysis at up to 1000 uM after 20 mins; assay type: cell-based, Ovis aries; details: erythrocyte
Priestia megaterium [4] = experiment: Antimicrobial activity against Bacillus megaterium after 18 hrs by broth microdilution method; assay type: functional, organism-based
[5] = Toxicity in sheep erythrocytes assessed as hemolysis at up to 100 uM after 20 mins; assay type: cell-based, Ovis aries; details: erythrocyte
[6] = Solubility of the compound in 33 % acetonitrile-water; assay type: physicochemical; details: buffer

## C[C@H]1NC(=O)[C@H](CC(C)(C)C)NC(=O)[C@@H](C)NC(=O)[C@H](CC(C)(C)C)NC(=O)[C@@H](C)NC(=O)[C@H](CC(C)(C)C)NC(=O)[C@H](CCCCN)NC(=O)[C@H](CC(C)(C)C)NC1=O
Priestia megaterium [1]
  Activity: Active
Priestia megaterium [2]
  Activity: inactive
[3]
  Activity: Non-toxic
Priestia megaterium [4]
  Activity: inactive

## C[C@@H]1NC(=O)[C@@H](CC(C)(C)C)NC(=O)[C@H](C)NC(=O)[C@@H](CC(C)(C)C)NC(=O)[C@H](CCCCN)NC(=O)[C@@H](CC(C)(C)C)NC(=O)[C@H](C)NC(=O)[C@@H](CC(C)(C)C)NC1=O
Priestia megaterium [2]
  Activity: Active
[5]
  Activity: Non-toxic
Priestia megaterium [4]
  Activity: Active

## C[C@H]1NC(=O)[C@H](CC(C)(C)C)NC(=O)[C@@H](C)NC(=O)[C@H](CC(C)(C)C)NC(=O)[C@@H](CCCCN)NC(=O)[C@H](CC(C)(C)C)NC(=O)[C@@H](C)NC(=O)[C@H](CC(C)(C)C)NC1=O
Priestia megaterium [2]
  Activity: Active
[5]
  Activity: Non-toxic
Priestia megaterium [4]
  Activity: Active

## C[C@@H]1NC(=O)[C@@H](CC(C)(C)C)NC(=O)[C@H](C)NC(=O)[C@@H](CC(C)(C)C)NC(=O)[C@@H](CCCCN)NC(=O)[C@@H](CC(C)(C)C)NC(=O)[C@H](C)NC(=O)[C@@H](CC(C)(C)C)NC1=O
Priestia megaterium [1]
  Activity: Active
Priestia megaterium [2]
  Activity: inactive
[3]
  Activity: Non-toxic
Priestia megaterium [4]
  Activity: inactive

## CC(C)(C)C[C@@H]1NC(=O)[C@@H](CCC(N)=O)NC(=O)[C@H](CC(C)(C)C)NC(=O)[C@@H](CCC(N)=O)NC(=O)[C@H](CC(C)(C)C)NC(=O)[C@@H](CCC(=O)O)NC(=O)[C@H](CC(C)(C)C)NC(=O)[C@@H](CCC(N)=O)NC1=O
[6]
  solubility: soluble

## CC(C)(C)C[C@H]1NC(=O)[C@H](CCC(N)=O)NC(=O)[C@@H](CC(C)(C)C)NC(=O)[C@H](CCC(N)=O)NC(=O)[C@@H](CC(C)(C)C)NC(=O)[C@H](CCC(=O)O)NC(=O)[C@@H](CC(C)(C)C)NC(=O)[C@H](CCC(N)=O)NC1=O
[6]
  solubility: soluble
